Source: patent publication US9701618B2, “Cannabidiol quinone derivatives” (VIVACELL BIOTECHNOLOGY ESPAÑA S.L., priority 2014, dated 2017)
“Also recorded” adds a separate entry of the source.

Key:
PPARg [1] = target: T1, PPARg (Homo sapiens, UniProt P37231); conditions: cited from earlier work
T1 sequence (P37231 1-505): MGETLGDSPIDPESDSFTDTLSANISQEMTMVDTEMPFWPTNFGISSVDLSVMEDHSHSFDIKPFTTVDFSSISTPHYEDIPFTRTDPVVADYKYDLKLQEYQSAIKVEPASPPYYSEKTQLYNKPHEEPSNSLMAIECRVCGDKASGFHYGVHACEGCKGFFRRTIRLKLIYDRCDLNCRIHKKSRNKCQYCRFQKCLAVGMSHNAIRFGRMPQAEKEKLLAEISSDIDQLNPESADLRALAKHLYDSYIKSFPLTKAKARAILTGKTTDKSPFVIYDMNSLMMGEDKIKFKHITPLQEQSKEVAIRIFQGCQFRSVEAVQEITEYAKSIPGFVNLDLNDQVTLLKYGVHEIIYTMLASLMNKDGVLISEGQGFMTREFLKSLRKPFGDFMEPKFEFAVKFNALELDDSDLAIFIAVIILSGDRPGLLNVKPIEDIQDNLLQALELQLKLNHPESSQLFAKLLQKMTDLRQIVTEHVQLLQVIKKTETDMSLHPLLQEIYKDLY

PPARg [2] = assay: PPARg transactivation assay (GAL4-PPARg/GAL4-luc) in HEK-293 and NIH-3T3 cells; type: cell-based, human; conditions: for PPARg transactivation (luciferase activity): treated 6 hours, compared with untreated cells
Experimental: The concentration of the tested compound (μM) is shown at the x-axis and the PPARg activation fold is shown at the y-axis. […]. Fold activation level was calculated, taking the control sample (−), without the presence of any PPARg agonist or activating agent, as reference. Data are expressed as mean±S.D. of at least three independent experiments.
To investigate the biological activities of the novel compounds we performed PPARg transactivation assays in HEK-293 cells and in NIH-3T3 fibroblasts cells.
HEK293T cells and human primary fibroblasts cells were maintained at 37° C. in a humidified atmosphere containing 5% CO2 in DMEM supplemented with 10% fetal calf serum (FBS), and 1% (v/v) penicillin/streptomycin. Rosiglitazone was purchased from Cayman Chemical Company (Ann Arbor, Mich., USA). All other reagents were from Sigma Co (St Louis, Mo., USA). HEK293T cells (2×10^3/well) (FIGS. 1A, 1B and 1C) or NIH-3T3 cells (5×10^3/well) (FIG. 2) were seeded in BD Falcon™ White with Clear Bottom 96-well Microtest™ Optilux™ Plate for 24 hours. Afterwards, cells were transiently co-transfected with the expression vector GAL4-PPARγ and the luciferase reporter vector GAL4-luc using Roti©-Fect (Carl Roth, Karlsruhe, Germany) following the manufacturer's instructions. Twenty-four h post-transfection, cells were pretreated with increasing doses of the compounds for 6 hours. Then, the cells were lysed in 25 mM Tris-phosphate pH 7.8, 8 mM MgCl2, 1 mM DTT, 1% Triton X-100, and 7% glycerol. Luciferase activity was measured in the cell lysate using a TriStar LB 941 multimode microplate reader (Berthold) and following the instructions of the Luciferase Assay Kit (Promega, Madison, Wis., USA). Protein concentration was measured by the Bradford assay (Bio-Rad, Richmond, Calif., USA). The background obtained with the lysis buffer was subtracted in each experimental value and the specific transactivation expressed as a fold induction over untreated cells. All the experiments were repeated at least three times. The plasmids used were Gal4-hPPARgamma (plasmid name: pCMV-BD-hPPARg, Sinal Laboratory, Dept. of Pharmacology, Dalhousie University) and Gal4 luc reporter plasmid that includes five Gal4 DNA binding sites fused to the luciferase gene. […]. Data are given as means with deviation standard error bars of three replicates. […].

PPARg [3] = assay: Inhibition of Rosiglitazone-induced PPARg activation in HEK-293 cells; type: cell-based, human; conditions: pretreated 30 min, then RSZ 1 μM for 6 hours
Experimental: (A) HEK-293 cells were co-transfected with GAL4-PPARg and GAL4-luc. […] Protein lysates were prepared and analyzed for luciferase activity. The concentration of the tested compound (μM) is shown at the x-axis and the PPARg activation fold is shown at the y-axis.
(A) HEK293T cells were maintained at 37° C. in a humidified atmosphere containing 5% CO2 in DMEM supplemented with 10% fetal calf serum (FBS), and 1% (v/v) penicillin/streptomycin. Rosiglitazone was purchased from Cayman Chemical Company (Ann Arbor, Mich., USA). HEK293T cells (2×10^3/well) (FIG. 3A) were seeded in BD Falcon™ White with Clear Bottom 96-well Microtest™ Optilux™ Plate for 24 hours. Afterwards, cells were transiently co-transfected with the expression vector GAL4-PPARγ and the luciferase reporter vector GAL4-luc using Roti©-Fect (Carl Roth, Karlsruhe, Germany) following the manufacturer's instructions. Twenty-four h post-transfection, cells were pretreated with increasing doses of the compounds for 30 min and then stimulated with RSZ (1 μM) for 6 hours.

human COL1A2 promoter = assay: TGFb-induced collagen type I gene transcription (COL1A2-Luc) in NIH-3T3 fibroblasts; type: cell-based; conditions: 30 min pre-incubation, TGFb 50 ng/ml 6 h
Experimental: To investigate the potential anti-fibrotic activity of CBD-derivatives NIH-3T3 fibroblast cells were transiently transfected with the plasmid COL1A2-Luc plasmid by using Roti©-Fect according to the manufacturer instructions. The COL1A2-luciferase construct contains sequences from −353 to +58 bp of the human COL1A2 promoter fused to the luciferase reporter gene (pGL2 basic, Promega, Madison, Wis.). […] Protein lysates were prepared and analyzed for luciferase activity. The concentration of the tested compound (μM) is shown at the x-axis and the percentage of COL1A2 activation is shown at the y-axis considering 100% activation the effect of TGFb in the absence of the compounds. Data are expressed as mean±SD of at least three independent experiments.
Cultured NIH-3T3 fibroblast cells were transiently transfected with the plasmid COL1A2-Luc plasmid that contains sequences from −353 to +58 bp of the human COL1A2 promoter fused to the luciferase reporter gene. Twenty-four hour later the cells were incubated with compounds III, V, VIII and X (as examples) for 30 min and treated with TGFb (50 ng/ml) for 6 h. Protein lysates were prepared and analyzed for luciferase activity.

NIH-3T3 cells = assay: TGFb-induced collagen production, Sirius Red-Fast Green method; type: cell-based; conditions: 1 hour pre-incubation, TGFb 50 ng/ml 24 hours
Experimental: The production of collagen was carried out using the Sirius Red-Fast Green method, designed to quantify the amount of collagen and non-collagen proteins in cell pellets. The collagen production was determined at 540 nm and 605 nm in a Genesis 10 UV scanning spectrofluorometer (Thermo Fisher Scientific). To calculate the amounts of collagen, first, we corrected the OD 540 value by subtracting the contribution by Fast Green, which interfere in the absorbance at 540 nm. Fast Green contributes 29.1% of the OD 540 value. The Color equivalence is 37.8 for collagen and 2.04 for non-collagen proteins at OD 540 and […], respectively. Collagen(pg/100 μl cell pellet)={[OD 540−(OD 605×0.291)]/37.8×1000}×10^6.
The experiments were repeated three times, and the results were expressed as a fold induction over untreated cells.
The production of collagen was carried out using the Sirius Red-Fast Green method, designed to quantify the amount of collagen and non-collagen proteins in cell pellets. NIH-3T3 cells were seeded at a density of 5×10^4/well in 24 well plates and they were incubated overnight at 37° C. to allow cell attachment. Next, cells were pre-incubated 1 hour with the indicated concentrations of compounds III, V, VIII and X and TGFb (50 ng/ml) during 24 hours. After the treatment, the cell pellets were extracted overnight at 4° C. with 100 μl of 0.5M acetic acid. Then, 1 ml of the dye solution (0.1% Sirius Red and 0.1% Fast Green dissolved in saturated picric acid) was added to the cell pellets and mixed gently at room temperature for 30 minutes. Next, samples were centrifuged at 10,000 g for 5 minutes to pellet the collagen. The supernatants were carefully removed without disturbing the pellet and 1 ml of 0.1 M hydrochloric acid was added to each tube to remove unbound dye. Samples were centrifuged at 10,000 g for 5 minutes and 1 ml of 0.5 M sodium hydroxide was added to each tube and vortex vigorously to release the bound dye. Samples were centrifuged at 2500 g for 5 minutes to re-pellet any cell debris.
The collagen production was determined and the results were expressed as a fold induction over untreated cells.

Jurkat cells [4] = assay: Mitochondrial membrane potential (MitoTracker Red CMXR, flow cytometry); type: cell-based; conditions: 2 hours, increasing concentrations
Jurkat cells [5] = assay: ROS generation (H2DCF-DA, flow cytometry); conditions: 6 hours, increasing concentrations

| Compound | PPARg transactivation (luciferase activity) (PPARg [2]) | RSZ-induced PPARg transactivation (PPARg [3]) | TGFb-induced collagen type I gene transcription (human COL1A2 promoter) | TGFb-induced collagen production (NIH-3T3 cells) | mitochondrial membrane potential (Jurkat cells [4]) | intracellular ROS levels (Jurkat cells [5]) | also measured |
| --- | --- | --- | --- | --- | --- | --- | --- |
| 4 methyl-CBD-quinone | – | – | – | – | – | – | affinity for PPARg compared to parent molecule CBD (PPARg [1]): higher affinity |
| 4-formyl-methoxy-CBD-quinone | – | – | – | – | – | – | affinity for PPARg compared to parent molecule CBD (PPARg [1]): higher affinity |
| C=C(C)[C@@H]1CCC(C)=C[C@H]1C1=C(O)C(=O)C(CCCCC)=C(NCC)C1=O [Compound II, (1′R,6′R)-3-(Ethylamine)-6-hydroxy-3′-methyl-4-pentyl-6′-(prop-1-en-2-yl)-[1,1′-bi(cyclohexane)]-2′,3,6-triene-2,5-dione] | the most active compounds | – | – | – | – | – | – |
| C=C(C)[C@@H]1CCC(C)=C[C@H]1C1=C(O)C(=O)C(CCCCC)=C(NCCCCC)C1=O [Compound III, (1′R,6′R)-3-(Pentylamine)-6-Hydroxy-3′-methyl-4-pentyl-6′-(prop-1-en-2-yl)-[1,1′-bi(cyclohexane)]-2′,3,6-triene-2,5-dione] | the most active compounds | decrease | clearly inhibited | clearly inhibited | did not induce a loss | not reactive; also recorded: unable to induce ROS accumulation significantly | – |
| C=C(C)[C@@H]1CCC(C)=C[C@H]1C1=C(O)C(=O)C(CCCCC)=C(NCC(C)C)C1=O [Compound IV, (1′R,6′R)-3-(Isobutylamine)-6-Hydroxy-3′-methyl-4-pentyl-6′-(prop-1-en-2-yl)-[1,1′-bi(cyclohexane)]-2′,3,6-triene-2,5-dione] | the most active compounds | – | – | – | – | – | – |
| C=C(C)[C@@H]1CCC(C)=C[C@H]1C1=C(O)C(=O)C(CCCCC)=C(NCCCC)C1=O [Compound V, (1′R,6′R)-3-(Butylamine)-6-hydroxy-3′-methyl-4-pentyl-6′-(prop-1-en-2-yl)-[1,1′-bi(cyclohexane)]-2′,3,6-triene-2,5-dione] | the most active compounds | decrease | clearly inhibited | clearly inhibited | did not induce a loss | not reactive; also recorded: unable to induce ROS accumulation significantly | – |
| C=C(C)[C@@H]1CCC(C)=C[C@H]1C1=C(O)C(=O)C(CCCCC)=C(NC(C)C)C1=O [Compound VII, (1′R,6′R)-3-(Isopropylamine)-6-Hydroxy-3′-methyl-4-pentyl-6′-(prop-1-en-2-yl)-[1,1′-bi(cyclohexane)]-2′,3,6-triene-2,5-dione] | the most active compounds | – | – | – | did not induce a loss | not reactive | – |
| C=C(C)[C@@H]1CCC(C)=C[C@H]1C1=C(O)C(=O)C(CCCCC)=C(NCc2ccccc2)C1=O [Compound VIII, (1′R,6′R)-3-(Benzylamine)-6-hydroxy-3′-methyl-4-pentyl-6′-(prop-1-en-2-yl)-[1,1′-bi(cyclohexane)]-2′,3,6-triene-2,5-dione] | the most active compounds | decrease | clearly inhibited | clearly inhibited | – | – | – |
| C=C(C)[C@@H]1CCC(C)=C[C@H]1C1=C(O)C(=O)C(CCCCC)=C(NCCC(C)C)C1=O [Compound X, (1′R,6′R)-3-(Isopentylamine-6-Hydroxy)-3′-methyl-4-pentyl-6′-(prop-1-en-2-yl)-[1,1′-bi(cyclohexane)]-2′,3,6-triene-2,5-dione] | – | decrease | clearly inhibited | clearly inhibited | did not induce a loss | not reactive; also recorded: unable to induce ROS accumulation significantly | – |
| C=C(C)[C@@H]1CCC(C)=C[C@H]1C1=C(O)C(=O)C(CCCCC)=C(C(=O)OC/C=C(\C)CCC=C(C)C)C1=O [Compound XIII, (E)-3,7-dimethylocta-2,6-dienyl-4-hydroxy-5-((1R,6R)-3-methyl-6-(prop-1-en-2-yl)cyclohex-2-enyl)-3,6-dioxo-2-pentylcyclohexa-1,4-dienecarboxylate] | – | decrease | – | – | – | – | – |
| CN(CCOc1ccc(CC2SC(=O)NC2=O)cc1)c1ccccn1 (stereo not shown) [Rosiglitazone, reference compound] | – | – | – | – | – | – | increase of PPARg activity (fold induction) (PPARg [2]; 1 μM concentration): more than 100 times |
| CBD-1,4-dihydroxyquinone | – | – | – | – | – | – | affinity for PPARg compared to parent molecule CBD (PPARg [1]): higher affinity |
